Data taken from US8440666B2, “Pyridazinone compounds and P2X7 receptor inhibitors” (Nissan Chemical Industries, Ltd., priority 2007, dated 2013).
pIC50: −log10 of the molar value.

Columns and labels:
[1] = target: T1, Human P2X7 (hP2X7) receptor (Homo sapiens, UniProt Q99572); assay: Dye assay: BzATP-induced Yo-Pro-1 uptake in HEK293 cells stably expressing hP2X7; type: cell-based; conditions: 90 min incubation
T1 construct: myc-His (from the pcDNA3.1/myc-HisA vector); expressed in transfected cells
T1 sequence (Q99572 1-595): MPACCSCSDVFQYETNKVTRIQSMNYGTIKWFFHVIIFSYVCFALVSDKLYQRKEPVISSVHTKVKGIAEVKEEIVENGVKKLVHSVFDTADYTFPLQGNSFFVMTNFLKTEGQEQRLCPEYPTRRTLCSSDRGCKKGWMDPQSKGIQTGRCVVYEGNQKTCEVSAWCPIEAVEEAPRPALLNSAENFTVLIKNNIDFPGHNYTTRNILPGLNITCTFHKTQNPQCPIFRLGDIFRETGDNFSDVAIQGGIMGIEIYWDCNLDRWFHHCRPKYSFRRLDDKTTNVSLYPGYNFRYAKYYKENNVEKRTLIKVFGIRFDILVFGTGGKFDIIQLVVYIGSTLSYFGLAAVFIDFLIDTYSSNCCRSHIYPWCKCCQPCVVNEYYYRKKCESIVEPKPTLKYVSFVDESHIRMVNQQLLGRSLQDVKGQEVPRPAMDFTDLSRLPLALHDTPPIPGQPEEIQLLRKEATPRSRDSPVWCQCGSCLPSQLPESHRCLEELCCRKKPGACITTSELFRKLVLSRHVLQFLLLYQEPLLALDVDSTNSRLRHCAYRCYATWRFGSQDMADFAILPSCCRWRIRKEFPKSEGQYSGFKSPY
Excerpt: Human P2X7 (hP2×7) was cloned from a normal human brain total RNA library by reverse transcription (using SuperScript II (Invitrogen)) and PCR (using KOD-plus-(TOYOBO)). PCR primers were designed according to hP2X7 sequence registered in GENBANK with a putative amino acid sequence consisting of 595 amino acid residues. The PCR fragments were inserted into pcDNA3.1/myc-HisA vector (Invitrogen) and sequenced for confirmation.
HEK293 cells were transfected with hP2×7/pcDNA3.1/myc-HisA by lipofection, and 1 day later, the cells were treated with 1 mg/mL G418, and resistant cells were selected by appropriately dilution. The resistant cells were cloned by reseeding at a low density.
P2X7 receptor antagonists were screened by a dye uptake assay using HEK293 cells stably expressing hP2×7. Cells were plated on a type I collagen-coated black/clear bottom 96-well plate at 20000 cells/well and a day later, treated with varying concentrations of various test compounds for 30 minutes, then treated with a dye (Yo-Pro-1) (final concentration 2 μM) and BzATP (final concentration 0.1 mM) and incubated for 90 minutes. Then, the fluorescence (indicating the BzATP-induced Yo-Pro-1 uptake mediated by the P2X7 receptor) was measured with a microplate reader (excitation wavelength: 485 nm, emission wavelength: 535 nm). The % inhibition rates were calculated and plotted against the logarithms of the concentrations to determine IC50.

[2] = tested on: IL-1β in supernatants of peripheral blood mononuclear cells; assay: IL-1β assay: BzATP- or ATP-induced IL-1β release from LPS-treated human peripheral blood mononuclear cells; type: cell-based; conditions: 2 h; IL-1β in supernatants of LPS-treated human PBMC; BzATP (1 mM) or ATP (5 mM), 120 min
Procedure: Human whole blood from healthy volunteers was diluted with equal volume of saline and peripheral blood mononuclear cells were collected by using a Limphoprep tube (Daiichi Pure Chemicals), washed with physiological saline and seeded onto a 96-well plate with a medium containing 1-10 ng/mL LPS (SIGMA). 30 minutes later, the cells were treated with varying concentrations of various compounds and incubated for 30 minutes. Then, the cells were treated with BzATP (final concentration 1 mM) or ATP (final concentration 5 mM) and incubated for 120 minutes. The cells were centrifugated to collect supernatents, and the concentration of IL-1β in supernatants were determined by IL-1β HTRF kit (CIS biointernational). The % inhibition rates were calculated and plotted against the logarithms of the concentrations to determine IC50.

[3] = BzATP (0.1 mM)-induced Yo-Pro-1 uptake, compounds 30 min pre-treatment
[4] = BzATP 0.1 mM, Yo-Pro-1 2 μM, 30 min pre-treatment

Compound	pIC50 [1, 3]	pIC50 [2]	pIC50 [1, 4]
C[C@@H]1[C@H]2C[C@@H](C[C@H]1Nc1cnn(CCNCc3ccncc3)c(=O)c1Br)C2(C)C [Synthetic Example 47, 4-Bromo-2-[2-(pyridin-4-ylmethylamino)ethyl]-5-[(1R,2R,3R,5S)-2,6,6-trimethylbicyclo[3.1.1]hept-3-ylamino]pyridazin-3(2H)-one]	7.68	7.21	–
C[C@@H]1[C@H]2C[C@@H](C[C@H]1Nc1cnn(CC(=O)NCc3ccncc3)c(=O)c1Br)C2(C)C [compound 9]	8.46	7.33	–
CC(NC(=O)Cn1ncc(N[C@@H]2C[C@@H]3C[C@H]([C@H]2C)C3(C)C)c(Br)c1=O)c1ccncc1 (some centres unmarked) [compound 39]	8.20	7.72	–
CCN(CC)c1ccc(C(=O)Cn2ncc(N[C@@H]3C[C@@H]4C[C@H]([C@H]3C)C4(C)C)c(Br)c2=O)cc1 [compound 84]	8.39	7.09	–
CCC(NC(=O)Cn1ncc(N[C@@H]2C[C@@H]3C[C@H]([C@H]2C)C3(C)C)c(Br)c1=O)c1ccncc1 (some centres unmarked) [compound 171]	8.37	7.48	–
CC1C(Nc2cnn(CC(=O)NCc3ccnnc3)c(=O)c2Br)CC2CC1C2(C)C (centres unmarked) [compound 214]	8.41	7.41	–
COc1cnccc1CNC(=O)Cn1ncc(N[C@@H]2C[C@@H]3C[C@H]([C@H]2C)C3(C)C)c(Br)c1=O [compound 216]	7.92	7.42	–
C[C@@H]1[C@H]2C[C@@H](C[C@H]1Nc1cnn(CC(=O)N[C@H](C)c3ccncc3)c(=O)c1Cl)C2(C)C [compound 230]	8.55	8.51	–
CC(NC(=O)Cn1ncc(N[C@@H]2C[C@@H]3C[C@H]([C@H]2C)C3(C)C)c(Cl)c1=O)c1ccncc1Cl (some centres unmarked) [compound 264]	8.85	8.48	–
C[C@@H]1[C@H]2C[C@@H](C[C@H]1Nc1cnn(CC(=O)NCc3ccncc3N(C)C)c(=O)c1Cl)C2(C)C [compound 277]	8.43	8.37	–
COc1cnccc1CNC(=O)Cn1ncc(N[C@@H]2C[C@@H]3C[C@H]([C@H]2C)C3(C)C)c(Cl)c1=O [compound 294]	8.27	–	–
CCC(NC(=O)Cn1ncc(N[C@@H]2C[C@@H]3C[C@H]([C@H]2C)C3(C)C)cc1=O)c1ccncc1 (some centres unmarked) [compound 295]	6.64	–	–
C[C@@H]1[C@H]2C[C@@H](C[C@H]1Nc1cnn(CCS(=O)(=O)c3ccccc3)c(=O)c1Cl)C2(C)C [compound 308]	6.64	–	–
CC1(C)[C@@H]2C[C@@H](Nc3cnn(CC(=O)NCc4ccncc4)c(=O)c3Br)[C@@](C)(O)[C@H]1C2 [compound 314]	7.47	–	–
O=C(Cn1ncc(NC2CCCCCCC2)c(Br)c1=O)NCc1ccncc1 [compound 321]	7.42	–	–
O=C(Cn1ncc(NC2CCCCCCCCC2)c(Br)c1=O)NCc1ccncc1 [compound 326]	6.80	–	–
O=C(Cn1ncc(NC2CC3CC4CC(C3)C2C4)c(Br)c1=O)NCc1ccncc1 (centres unmarked) [compound 331]	7.72	–	–
CCC(NC(=O)Cn1ncc(NC23CC4CC(CC2C4)C3)c(Br)c1=O)c1ccncc1 (centres unmarked) [compound 335]	7.89	–	–
CCC(NC(=O)Cn1ncc(NC23CC4CC(CC2C4)C3)c(Cl)c1=O)c1ccncc1 (centres unmarked) [compound 337]	8.09	–	–
Cc1cnccc1CNC(=O)Cn1ncc(NC23CC4CC(CC2C4)C3)c(Cl)c1=O [compound 338]	8.28	–	–
O=C(Cn1ncc(NC23CC4CC(CC2C4)C3)c(Cl)c1=O)NCc1ccnc(F)c1 [compound 343]	7.60	–	–
O=C(Cn1ncc(NC23CC4CC(CC2C4)C3)c(Br)c1=O)NCc1ccnnc1 [compound 345]	7.47	–	–
C[C@@H](NC(=O)Cn1ncc(NC23CC4CC(CC2C4)C3)c(Cl)c1=O)c1ccncc1 [compound 347]	8.30	–	–
CC(NC(=O)Cn1ncc(NC23CC4CC(CC2C4)C3)c(Br)c1=O)c1ccnnc1 (centres unmarked) [compound 348]	7.59	–	–
CCC(NC(=O)Cn1ncc(NC23CC4CC(CC2C4)C3)c(Cl)c1=O)c1ccncn1 (centres unmarked) [compound 351]	7.35	–	–

Compound	pIC50 [1, 3]	pIC50 [2]	pIC50 [1, 4]
CC(NC(=O)Cn1ncc(NC23CC4CC(CC2C4)C3)c(Cl)c1=O)c1ccncc1Cl (centres unmarked) [compound 354]	8.59	–	–
CCC(NC(=O)Cn1ncc(NC2CCCCCCC2)c(Br)c1=O)c1ccncc1 (centres unmarked) [compound 355]	7.57	–	–
CCC(NC(=O)Cn1ncc(N[C@@H]2C[C@@H]3C[C@@H](C3(C)C)[C@]2(C)O)c(Cl)c1=O)c1ccncc1 (some centres unmarked) [compound 360]	7.85	–	–
Cc1cnccc1CNC(=O)Cn1ncc(N[C@@H]2C[C@@H]3C[C@@H](C3(C)C)[C@]2(C)O)c(Cl)c1=O [compound 361]	7.74	–	–
CN(C)c1cnccc1CNC(=O)Cn1ncc(N[C@@H]2C[C@@H]3C[C@@H](C3(C)C)[C@]2(C)O)c(Cl)c1=O [compound 362]	8.51	–	–
CC(NC(=O)Cn1ncc(N[C@@H]2C[C@@H]3C[C@@H](C3(C)C)[C@]2(C)O)c(Cl)c1=O)c1ccncc1Cl (some centres unmarked) [compound 363]	8.55	–	–
CC(NC(=O)Cn1ncc(N[C@@H]2C[C@@H]3C[C@@H](C3(C)C)[C@]2(C)O)c(Cl)c1=O)c1ccnnc1 (some centres unmarked) [compound 364]	8.47	–	–
CC(NC(=O)Cn1ncc(N[C@@H]2C[C@@H]3C[C@@H](C3(C)C)[C@]2(C)O)c(Cl)c1=O)c1ccnc(F)c1 (some centres unmarked) [compound 365]	8.57	–	–
CN(C)c1cnccc1CNC(=O)Cn1ncc(NC23CC4CC(CC(C4)C2)C3)c(Cl)c1=O [compound 366]	8.59	–	–
CC(NC(=O)Cn1ncc(NC23CC4CC(CC(C4)C2)C3)c(Cl)c1=O)c1ccnnc1 (centres unmarked) [compound 367]	8.52	–	–
C[C@@H](NC(=O)Cn1ncc(NC2C3CC4CC(C3)CC2C4)c(Cl)c1=O)c1ccncc1 (some centres unmarked) [compound 368]	8.59	–	–
C[C@@H](NC(=O)Cn1ncc(NC2C3CCCC2CCC3)c(Cl)c1=O)c1ccncc1 (some centres unmarked) [compound 369]	8.68	–	–
CC(NC(=O)Cn1ncc(NC2C3CCCC2CCC3)c(Br)c1=O)c1ccnnc1 (centres unmarked) [compound 372]	8.49	–	–
CN(C)c1cnccc1CNC(=O)Cn1ncc(NC2C3CCCC2CCC3)c(Cl)c1=O (centres unmarked) [compound 373]	8.55	–	–
CC(NC(=O)Cn1ncc(NC2C3CCCC2CCC3)c(Cl)c1=O)c1ccncn1 (centres unmarked) [compound 374]	8.22	–	–
CC(NC(=O)Cn1ncc(NC2C3CCCC2CCC3)c(Cl)c1=O)c1ccnnc1 (centres unmarked) [compound 376]	8.57	–	–
CC(NC(=O)Cn1ncc(NC2C3CCCC2CCC3)c(Cl)c1=O)c1ccnc(F)c1 (centres unmarked) [compound 377]	8.64	–	–
COc1nnc(Cl)cc1C(C)NC(=O)Cn1ncc(N[C@@H]2C[C@@H]3C[C@H]([C@H]2C)C3(C)C)c(Cl)c1=O (some centres unmarked) [compound 438]	–	–	8.77
CC(NC(=O)Cn1ncc(N[C@@H]2C[C@@H]3C[C@H]([C@H]2C)C3(C)C)c(Cl)c1=O)c1ccnnc1Cl (some centres unmarked) [compound 439]	–	–	8.70
COc1nnccc1C(C)NC(=O)Cn1ncc(N[C@@H]2C[C@@H]3C[C@H]([C@H]2C)C3(C)C)c(Cl)c1=O (some centres unmarked) [compound 441]	–	–	8.72
Cc1cc(C(C)NC(=O)Cn2ncc(N[C@@H]3C[C@@H]4C[C@H]([C@H]3C)C4(C)C)c(Cl)c2=O)c(Cl)nn1 (some centres unmarked) [compound 443]	–	–	8.25
C[C@@H]1[C@H]2C[C@@H](C[C@H]1Nc1cnn(CC(=O)NCC3CCNC=C3S(C)(=O)=O)c(=O)c1Cl)C2(C)C (some centres unmarked) [compound 447]	–	–	7.38
C[C@@H]1[C@H]2C[C@@H](C[C@H]1Nc1cnn(CC(=O)NCc3ccnc(F)c3Cl)c(=O)c1Cl)C2(C)C [compound 448]	–	–	7.85
CC(NC(=O)Cn1ncc(NC2CCC[C@@H]3CCCC[C@H]23)c(Cl)c1=O)c1ccncc1 (some centres unmarked) [compound 453]	–	–	7.80
